# From patent publication US6943185B2, “Use of 2-methyl-thiazolidine-2,4-dicarboxylic acid and/or physiologically compatible salts thereof for producing a medicament for treating cancers” (Trommsdorff GmbH & Co. KG, priority 2000, dated 2005)
# What was measured:
# [1] = cited from earlier work
# [2] = test system: reduced glutathione (GSH) in the hepatic tissue; experiment: Effect of 2-MTDC on reduced glutathione (GSH) in the hepatic tissue in mice; format: in vivo; settings: mouse liver; for Glutathione (GSH), % of the reference value: reference 0.9% NaCl
# animal tumor models = experiment: Animal tumor models (skin papillomas, mammary adenocarcinomas, tracheal cancer, pulmonary adenocarcinomas, colon carcinomas, bladder cancer); format: in vivo; settings: several animal tumor models in mouse, rat, hamster
# Experimental: These studies were conducted in several animal tumor models. Test systems used were the mouse, the rat, and the hamster. The objects of study included skin papillomas, mammary adenocarcinomas, tracheal cancer, pulmonary adenocarcinomas as well as colon carcinomas and bladder cancer.
# [3] = pulmonary cancer patients treated with epirubicin and simultaneously NAC; cited from earlier work
# [4] = 2-MTDC 1.2 mmol/kg intraperitoneally, 8 hours after injection
# [5] = 2-MTDC 2.4 mmol/kg intraperitoneally, 4 hours after injection
compound,measurement,setting,value
CC1NC(C(=O)O)CS1 (stereo not shown),Stability under physiological conditions,[1],spontaneously decomposes into its components under physiological conditions
"CC1(C(=O)O)NC(C(=O)O)CS1 (stereo not shown) [2-MTDC, 2-methyl-thiazolidine-2,4-dicarboxylic acid]","Glutathione (GSH), % of the reference value","[2]; 2-MTDC 1.2 mmol/kg intraperitoneally, 1 hour after injection",117.5%
same,"Glutathione (GSH), % of the reference value","[2]; 2-MTDC 1.2 mmol/kg intraperitoneally, 4 hours after injection",87.2%
same,"Glutathione (GSH), mean ± SD",[2]; [4],6.48 ± 0.67 μmol/g wet weight
same,"Glutathione (GSH), % of the reference value",[2]; [4],108.5%
same,"Glutathione (GSH), % of the reference value","[2]; 2-MTDC 1.2 mmol/kg intraperitoneally, 12 hours after injection",112.0%
same,"Glutathione (GSH), % of the reference value","[2]; 2-MTDC 2.4 mmol/kg intraperitoneally, 1 hour after injection",127.6%
same,"Glutathione (GSH), mean ± SD",[2]; [5],5.76 ± 0.42 μmol/g wet weight
same,"Glutathione (GSH), % of the reference value",[2]; [5],90.3%
same,"Glutathione (GSH), % of the reference value","[2]; 2-MTDC 2.4 mmol/kg intraperitoneally, 8 hours after injection",112.0%
same,"Glutathione (GSH), % of the reference value","[2]; 2-MTDC 2.4 mmol/kg intraperitoneally, 12 hours after injection",154.5%
same,Effect on the advance of cancerous diseases,animal tumor models,can slow down or even stop the advance of cancerous diseases
CC(=O)N[C@@H](CS)C(=O)O [N-acetylcysteine],Effect on undesirable cardiotoxic effects of epirubicin,[3],undesirable cardiotoxic effects of epirubicin could be prevented
